Columns and labels:
miR-24 = miR-24 level by qRT-PCR relative to U6; format: cell-based, human
Description: (§1) HepG2 cells were grown in DMEM supplemented with 10% FCS. HL60 and K562 cells were grown in RPMI-1640 supplemented with 10% FCS. K562 cells (0.5×10^6 cells/ml) were treated with TPA (16 nM, 2 d) or Hemin (100 μM, 4 d) for differentiation into megakaryocytes or erythrocytes, respectively. To induce macrophage or granulocyte differentiation, HL60 cells (0.5×10^6 cells/ml) were treated with TPA (16 nM, 2 d) or DMSO (1.25%, 5 d), respectively. We isolated human polymorphonuclear neutrophils (PMN) from whole blood after removing mononuclear cells and platelets by Ficoll-Hypaque density gradient centrifugation. Erythrocytes were lysed by treatment with ice-cold isotonic lysis buffer (0.155 M NH4Cl, pH 7.4). The remaining PMN cells were washed with Hanks' balanced salt solution and suspended in RPMI medium containing 10% (v/v) FCS. We isolated human macrophages from peripheral blood as described in Song et al. 2003.
(§2) Total RNA was isolated using Trizol (Invitrogen) and reverse transcribed using random hexamers and superscript II reverse transcriptase (Invitrogen). qRT-PCR was performed in triplicate samples using the SYBR Green master mix (Applied Biosystems) and the BioRad iCycler. Primers are provided in Supplemental Table 1. Results were normalized to GAPDH. miRNA quantitative PCR was done in triplicate using the TaqMan MicroRNA Assay from Applied Biosystems as per the manufacturer's instructions and normalized to U6 SnRNA.
(§3) HepG2 cells (2.5×10^5/well) were reverse transfected with 30 nM miRNA […] (cel-miR-67) mimics (Dharmacon) using NeoFx (Ambion) following the manufacturer's instructions. K562 cells were transfected with miRNA or control mimics (100 nM) using Amaxa nucleofection following the manufacturer's protocol. K562 cells were treated with TPA (16 nM, 2 d) and were transfected with 100 nM miR-24 ASO using lipofectamine 2000 (Invitrogen) and 36 h later these cells were exposed to indicated concentrations of bleomycin and cell viability was assessed 2 d later.

H2AX mRNA = H2AX mRNA level by qRT-PCR; format: cell-based, human
Description: as §1, §2, §3

K562 cells [1] = assay: Cell proliferation by thymidine uptake; format: cell-based, human; conditions: TPA-treated K562 cells, by 12 h
K562 cells [2] = assay: Chromosome breakage analysis after γ-irradiation; format: cell-based, human; conditions: for Chromosome breaks and fragments versus control cells: 24 hr after 0.75 Gy γ-irradiation
Description: K562 and HepG2 cultures were exposed in duplicate wells to indicated doses of γ-irradiation and incubated at 37° C. for indicated times in 5% CO2. Cells were harvested and processed for chromosomal analysis following standard methods (S1). 50-75 Wright-stained metaphases for each condition were scored for chromosomal aberrations.

H2AX = H2AX protein level by immunoblot (densitometry relative to H3); format: cell-based, human
K562 cells [3] = assay: Cell viability assay after genotoxic drug, K562; format: cell-based, human; conditions: for Sensitivity to DNA damage (viability after bleomycin): viability 2 d later
Description: as §3
(§4) microRNA-transfected K562 or HepG2 cells were seeded (2×10^3 cells/100 μl) into octuplicate microtiter wells, incubated overnight, and then treated with indicated reagents or medium for 48 h. Viability was measured by CyQuant Cell Proliferation Assay Kit as per manufacturer's instructions (Molecular Probes). Results were expressed as OD520 relative to that of untreated cells.

3′UTR of H2AX mRNA = assay: Luciferase reporter assay with H2AX 3′UTR / MRE reporters in HepG2 cells; format: cell-based
Description: HepG2 cells (2.5×10^5/well) were reverse transfected in triplicate with 30 nM miR-24 mimic, miRNA-328 mimic or control miRNA mimic. Two days later, cells were transfected using Lipofectamine 2000 (Invitrogen) with psiCHECK2 (Promega) vector (0.5 μg/well) containing the 3′UTR of H2AX cloned in the multiple cloning site of Renilla luciferase or control. After 24 hr luciferase activities were measured using the Dual Luciferase Assay System (Promega) and TopCount NXT microplate reader (Perkin Elmer) per manufacturer's instructions. Data were normalized to Firefly luciferase. To test whether H2AX mRNA is directly regulated by miR-24, we cloned the two predicted MREs in the H2AX 3′ UTR into the multiple cloning site of psiCHECK2 and also the mutant versions that disrupted base-pairing between the binding sites and miR-24. HepG2 cells were cotransfected with these plasmids and miR-24 or control mimics for 48 h using Lipofectamine 2000, before we performed the luciferase assays as described above.

CHEK1 = CHEK1 protein level by immunoblot; format: cell-based, human; conditions: K562 cells
Description: K562 cells (1×10^6) were transfected with miR-24 mimics or control miRNA mimics (cel-miR-67) as above and 48 h later whole cell lysates were prepared using RIPA buffer (150 mM NaCl, 1% NP-40, 0.5% sodium deoxycholate, 0.1% SDS, 50 mM Tris, pH 8.0). Protein samples were quantified using Bradford reagent (BioRad) and resolved on 10% SDS-PAGE gels and analyzed by immunoblot probed with antibodies to H2AX (Upstate Biotech), CHEK1 (cell Signaling), histone H3 (Cell Signaling), tubulin (Sigma). All antibodies were used at a dilution of 1:1000.

HepG2 cells [4] = assay: Cell viability assay after genotoxic drug, HepG2; format: cell-based
Description: as §3, §4

HepG2 cells [5] = assay: Cell cycle analysis by propidium iodide flow cytometry; format: cell-based; conditions: HepG2 cells transfected 48 hr
UBC mRNA = UBC mRNA level by qRT-PCR; format: cell-based; conditions: miR-24 over-expression in HepG2 cells
Description: as §2, §3

K562 cells [6] = assay: Single cell gel electrophoresis (comet) assay; format: cell-based, human

C[S+](C)[O-] [DMSO]
miR-24 level during differentiation (miR-24; HL60 cells): increases
Decline of H2AX mRNA, primers specific for the longer transcript (H2AX mRNA; HL60 cell differentiation): two-fold

CCCCCCCCCCCCCC(=O)O[C@@H]1[C@@H](C)[C@@]2(O)[C@@H](C=C(CO)C[C@]3(O)C(=O)C(C)=C[C@@H]23)[C@@H]2C(C)(C)[C@]12OC(C)=O [TPA, 12-O-tetradecanoylphorbol-13-acetate]
miR-24 level during differentiation (miR-24; HL60 cells): increases
miR-24 level during differentiation (miR-24; K562 cells): increases
Thymidine incorporation (K562 cells [1]): no thymidine incorporation
Chromosome breaks and fragments versus control cells (K562 cells [2]): significantly more sensitive
Drop of H2AX protein level (H2AX; HL60 cells after TPA induction): 4 fold
Drop of H2AX protein level (H2AX; K562 cells after TPA induction): 14 fold
Decline of H2AX mRNA, primers specific for the longer transcript (H2AX mRNA; HL60 cell differentiation): two-fold
Decline of H2AX mRNA, primers specific for the longer transcript (H2AX mRNA; K562 cell differentiation): two-fold
Sensitivity to DNA damage (viability after bleomycin) (K562 cells [3]): significantly hypersensitive

hemin
miR-24 level during differentiation (miR-24; K562 cells): increases
Decline of H2AX mRNA, primers specific for the longer transcript (H2AX mRNA; K562 cell differentiation): two-fold

miR-24: microRNA miR-24 (SEQ ID NO: 1), transfected as synthetic mimic (Dharmacon) for over-expression (UGGCUCAGUUCAGCAGGAACAG; synthetic mimic, further chemistry not given here)
Reduction of luciferase activity (3′UTR of H2AX mRNA; H2AX 3′UTR-containing reporter): more than 2 fold
Effect on luciferase activity, mutated MRE reporters (3′UTR of H2AX mRNA; MREs with mutated seed region): little effect
Luciferase activity from control reporters (3′UTR of H2AX mRNA; control reporter (vector)): unchanged
Reduction of luciferase activity, wild-type miR-24 MRE reporters (3′UTR of H2AX mRNA; either wild-type MRE inserted): approximately four-fold
CHEK1 protein (CHEK1): decrease
Effect on survival with miR-24-insensitive H2AX over-expression (HepG2 cells [4]; HepG2 cells): fully rescued
Cytotoxicity of bleomycin (HepG2 cells [4]; mimic-transfected HepG2 cells): significantly enhanced cytotoxicity
Cytotoxicity of cisplatin (HepG2 cells [4]; mimic-transfected HepG2 cells): significantly enhanced cytotoxicity
G1 compartment (HepG2 cells [5]): increases
Chromosomal instability versus control cells (K562 cells [2]; 0.38 Gy): more chromosomal instability
Chromosome breaks versus control cells (K562 cells [2]; 24 hr after 0.38 Gy): not significantly more breaks
Chromosome breaks and fragments versus control cells (K562 cells [2]): twice as many
Effect on UBC mRNA levels (UBC mRNA): does not alter
H2AX protein (H2AX; K562 cells transfected with mimic): reduces H2AX comparably to TPA differentiation
Reduction of H2AX protein expression (H2AX; miRNA over-expression in HepG2 cells, 48 hr): −8 fold
Decrease of H2AX mRNA (H2AX mRNA; miRNA over-expression in HepG2 cells, 48 hr, normalized to GAPDH): 2 fold
Comet tails compared to control miRNA-transfected cells (K562 cells [6]; K562 cells after bleomycin treatment): 5 fold
Comet moment after bleomycin with H2AX rescue (K562 cells [6]; K562 cells co-transfected with H2AX expression plasmid lacking 3′UTR, versus miRNA control and vector): no significant increase
Basal comet moment (K562 cells [6]; K562 cells, no bleomycin): not significantly changed
Repair of bleomycin-induced DNA damage by comet assay (K562 cells [6]; TPA-treated K562 cells): significantly enhances repair
Effect on survival with miR-24-insensitive H2AX over-expression (K562 cells [3]): fully rescued
Hypersensitivity to bleomycin with miR-24-insensitive CHEK1 expression (K562 cells [3]; CHEK1 cDNA lacking 3′UTR): not rescued
Sensitivity to DNA damage (viability after bleomycin) (K562 cells [3]): significantly hypersensitive

Source: patent publication US9347089B2, “Therapeutic and diagnostic strategies” (Children's Medical Center Corporation, priority 2008, dated 2016)
